Test results as given in patent publication US6511974B1, “Tricyclic vasopressin agonists” (Wyeth, priority 1997, dated 2003).

Experiments:
Vasopressin V2 = biological target: T1, Vasopressin V2 (Rattus norvegicus, UniProt Q00788); assay: Vasopressin V2 agonist effects in normal conscious water-loaded rats; assay type: in vivo; settings: Sprague-Dawley (CD) rats, urine collected four hours; for Urine Volume (% decrease): 10 mg per kg oral, percent decrease in urine volume vs. control; for Osmolality (% Increase): 10 mg/kg oral, change in osmolality as percent of control
T1 construct: vasopressin V2 receptors of the nephrons of the kidney; tissue Charles River Laboratories, Inc; host or cells: whole living animal (kidney collecting ducts)
T1 sequence (Q00788 whole entry): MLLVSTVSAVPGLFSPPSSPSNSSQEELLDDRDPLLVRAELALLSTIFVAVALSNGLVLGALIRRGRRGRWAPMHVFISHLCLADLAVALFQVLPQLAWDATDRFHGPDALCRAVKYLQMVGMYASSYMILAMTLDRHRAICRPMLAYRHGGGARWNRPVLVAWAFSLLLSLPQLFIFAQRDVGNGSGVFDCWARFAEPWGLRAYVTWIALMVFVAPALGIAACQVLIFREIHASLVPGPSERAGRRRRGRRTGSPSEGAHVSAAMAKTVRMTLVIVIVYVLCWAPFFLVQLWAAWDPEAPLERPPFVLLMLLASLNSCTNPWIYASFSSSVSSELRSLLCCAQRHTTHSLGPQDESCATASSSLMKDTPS
Text: Vasopressin V2 Agonist Effects of Test Compounds in Normal Conscious Water-Loaded Rats:
Male or female normotensive Sprague-Dawley rats (Charles River Laboratories, Inc., Kingston, N.Y.) of 350-500 g body weight were supplied with standard rodent diet (Purina Rodent Lab. Chow 5001) and water ad libitum. On the day of test, rats were placed individually into metabolic cages equipped with devices to separate the feces from the urine and containers for collection of urine. Test compound or reference agent was given at an oral dose of 10 mg/kg in a volume of 10 ml/kg. The vehicle used was 20% dimethylsulfoxide (DMSO) in 2.5% preboiled corn starch. Thirty minutes after dosing the test compound, rats were gavaged with water at 30 ml/kg into the stomach using a feeding needle. During the test, rats were not provided with water or food. Urine was collected for four hours after dosing of the test compound. At the end of four hours, urine volume was measured. Urinary osmolality was determined using a Fiske One-Ten Osmometer (Fiske Associates, Norwood, Mass., 02062) or an Advanced CRYOMATIC Osmometer, Model 3C2 (Advanced Instruments, Norwood, Mass.). Determinations of Na^+, K^+ and Cl^− ion were carried out using ion specific electrodes in a Beckman SYNCHRON EL-ISE Electrolyte System analyzer. The urinary osmolality should increase proportionally. In the screening test, two rats were used for each compound. If the difference in the urine volume of the two rats was greater than 50%, a third rat was used.

Row | Structure (SMILES) | Urine Volume (% decrease) (Vasopressin V2) [%] | Osmolality (% Increase) (Vasopressin V2) [%] | melting point [°C]
1 | Cc1ccn(-c2ccc(C(=O)N3Cc4cccn4Cc4ccccc43)c(Cl)c2)n1 [Example 9A] | 70 | 325 | –
2 | Cc1cnn(-c2ccc(C(=O)N3C=C4CC=CN4Cc4ccccc43)cc2)c1 [Example 60, [4-(4-Methyl-pyrazol-1-yl)-phenyl]-(5H,1H-pyrrolo[2,1-c][1,4]-benzodiazepin-10-yl)-methanone] | – | – | 179 to 181
3 | Cn1ncnc1-c1ccc(C(=O)N2Cc3cccn3Cc3ccccc32)c(Cl)c1 [Example 84, [2-Chloro-4-(2-methyl-2H-[1,2,4]triazol-3-yl)-phenyl]-(5H,11H-pyrrolo [2,1-c][1,4]benzodiazepin-10)-methanone] | 56 | 291 | –
4 | C#Cc1ccc(C(=O)N2Cc3cccn3Cc3ccccc32)c(Cl)c1 [Example 123, [2-Chloro-4-ethynyl-phenyl](5H-11H-pyrrolo [1,2-c][1,4]benzodiazepin-10-yl)methanone.] | 88 | 663 | –
